# Data taken from US20260232573A1, “DEGARELIX ORGANIC SOLVENT FORMULATIONS” (TOLMAR INTERNATIONAL LIMITED, priority 2023, published 2026).
# Non-standard residues stand in square brackets, D forms with d. Residues, ends and D or L forms follow the SMILES beside them. *: point of attachment. dPhe(4-NHCONH2) = NC(=O)Nc1ccc(C[C@@H](N)C(=O)O)cc1; Dihydroorotyl(S) = O=C1C[C@@H](C(=O)*)NC(=O)N1; dPhe(4-Cl) = N[C@H](Cc1ccc(Cl)cc1)C(=O)O; Phe(4-NH2) = Nc1ccc(C[C@H](N)C(=O)O)cc1; d2Nal = N[C@H](Cc1ccc2ccccc2c1)C(=O)O; Lys(iPr) = CC(C)NCCCC[C@H](N)C(=O)O; d3Pal = N[C@H](Cc1cccnc1)C(=O)O
# Type: physicochemical
# Text: Various organic solvents were screened for the maximal solubility of DgA-DS. […] Other solvents tested include-benzyl alcohol, PEG 300, propylene carbonate, triacetin, triethyl citrate, ethyl acetate, and benzyl benzoate.
# Bulk solution: To produce the drug/solvent bulk solution comprising the active pharmaceutical ingredient (DgA or DgC), the desired amount of the DgA-DS or DgC-DS was combined with the solvent NMP or DMSO or combination of solvents with or without co-solvent or other additives, in the indicated amounts (see individual experiments below). The API and solvent were combined in a glass vial or jar and blanketed with nitrogen. Jars were mixed using the jar mill, Turbula, or shaker at room temperature until homogeneous. DgA or DgC are very soluble in NMP or DMSO and can load higher concentrations (at least 40% w/w).
concentration that can be loaded (solubility),solubility capacity of degarelix,Compound,solubility
at least 40 % w/w,35-40 % w/w,"CC(=O)N[C@H](Cc1ccc2ccccc2c1)C(=O)N[C@H](Cc1ccc(Cl)cc1)C(=O)N[C@H](Cc1cccnc1)C(=O)N[C@@H](CO)C(=O)N[C@@H](Cc1ccc(NC(=O)[C@@H]2CC(=O)NC(=O)N2)cc1)C(=O)N[C@H](Cc1ccc(NC(N)=O)cc1)C(=O)N[C@@H](CC(C)C)C(=O)N[C@@H](CCCCNC(C)C)C(=O)N1CCC[C@H]1C(=O)N[C@H](C)C(N)=O [DgA-DS, degarelix acetate] (Ac-[d2Nal][dPhe(4-Cl)][d3Pal]S[Phe(4-NH2)](Dihydroorotyl(S))[dPhe(4-NHCONH2)]L[Lys(iPr)]P[dA]-NH2)","either insoluble or has solubility limits much lower than NMP, DMSO or DMA"
at least 40 % w/w,–,degarelix citrate [DgC],–
